From patent US7994202B2, “Bicyclic nitrogen-containing heterocyclic compounds” (Asahi Kasei Pharma Corporation, priority 2008, dated 2011)

Tested on: female SD rat
Experiment: Micturition interval prolongation in an anesthetized rat - II (0.2% acetic acid infusion to bladder)
Assay type: in vivo
Settings: urethane-anesthetized female SD rat, 0.2% acetic acid bladder infusion, administered to the left femoral vein
Experimental: Activity of prolonging micturition interval in an anesthetized rat was determined with reference to the method established by Maggi, et al. (Eur. J. Pharmacol. 145, p. 105-112 (1988)). Specifically, a female SD rat was anesthetized with urethane and fixed in a supine position, and a catheter was inserted through an external urethral opening. Using a three-way stopcock, it was connected to a pressure transducer and a syringe pump. While infusing physiological saline including 0.2% acetic acid to the bladder at constant rate, cystometrogram was recorded. After confirming stabilized micturition interval, micturition threshold pressure and maximal voiding pressure, a solvent or the compound to be tested was administered to the left femoral vein and an activity of prolonging micturition interval was determined as an efficacy of the drug compound. Each group included five animals.

Question: `O=C(O)c1csc(-n2nc(-c3ccccc3)c3ccccc32)n1` [Exp.2, 2-(3-Phenyl-1H-indazol-1-yl)thiazole-4-carboxylic acid] was tested. Which Voiding interval-extending action did it give?
Answer: 30.0%
